In patent US20140000884A1, “PETROLEUM RECOVERY PROCESS AND SYSTEM” (Shell Oil Company, priority 2012, published 2014):

Assay: Dynamic viscosity of crude/dimethyl sulfide blends (rheometer, closed cup)
Format: physicochemical
Description: The quality of dimethyl sulfide as an oil recovery agent based on the crude oil viscosity lowering properties of dimethyl sulfide was evaluated. Three crude oils having widely disparate viscosity characteristics—an African Waxy crude, a Middle Eastern asphaltic crude, and a Canadian asphaltic crude—were blended with dimethyl sulfide.
A control sample of each crude was prepared containing no dimethyl sulfide, and samples of each crude were prepared and blended with dimethyl sulfide to prepare crude samples containing increasing concentrations of dimethyl sulfide. Each sample of each of the crudes was heated to 60° C. to dissolve any waxes therein and to permit weighing of a homogeneous liquid, weighed, allowed to cool overnight, then blended with a selected quantity of dimethyl sulfide. The samples of the crude/dimethyl sulfide blend were then heated to 60° C. and mixed to ensure homogeneous blending of the dimethyl sulfide in the samples. Absolute (dynamic) viscosity measurements of each of the samples were taken using a rheometer and a closed cup sensor assembly. Viscosity measurements of each of the samples of the West African waxy crude and the Middle Eastern asphaltic crude were taken at 20° C., 40° C., 60° C., 80° C., and then again at 20° C. after cooling from 80° C., where the second measurement at 20° C. is taken to measure the viscosity without the presence of waxes since wax formation occurs slowly enough to permit viscosity measurement at 20° C. without the presence of wax. Viscosity measurements of each of the samples of the Canadian asphaltic crude were taken at 5° C., 10° C., 20° C., 40° C., 60° C., 80° C.

Viscosity (DMS 1.43 wt. %, 20° C.): 212525 mPa s | Viscosity (DMS 1.43 wt. %, 40° C.): 14721 mPa s | Viscosity (DMS 1.43 wt. %, 60° C.): 2209 mPa s | Viscosity (DMS 1.43 wt. %, 80° C.): 538 mPa s | Viscosity (DMS 2.07 wt. %, 20° C.): 134880 mPa s | Viscosity (DMS 2.07 wt. %, 40° C.): 10523 mPa s | Viscosity (DMS 2.07 wt. %, 60° C.): 1747 mPa s | Viscosity (DMS 2.07 wt. %, 80° C.): 427 mPa s | Viscosity (DMS 4.87 wt. %, 20° C.): 28720 mPa s | Viscosity (DMS 4.87 wt. %, 40° C.): 3235 mPa s | Viscosity (DMS 4.87 wt. %, 60° C.): 985 mPa s | Viscosity (DMS 4.87 wt. %, 80° C.): 328 mPa s
Compound: CSC [Dimethyl Sulfide, dimethyl sulfide]
